Drawing on US20250136606A1, “MODULATORS OF TRPML, THEIR COMPOSITIONS AND METHODS OF USE” (Caraway Therapeutics, Inc., priority 2021, published 2025), this text covers EC50 for 18 molecules.

Bounds are passed on as bounds.

Type in all cases: cell-based
The target in one experiment is T1, TRPML3 (Homo sapiens, UniProt Q8TDD5).
T1 construct: expressed in transfected cells
T1 sequence (Q8TDD5 1-553): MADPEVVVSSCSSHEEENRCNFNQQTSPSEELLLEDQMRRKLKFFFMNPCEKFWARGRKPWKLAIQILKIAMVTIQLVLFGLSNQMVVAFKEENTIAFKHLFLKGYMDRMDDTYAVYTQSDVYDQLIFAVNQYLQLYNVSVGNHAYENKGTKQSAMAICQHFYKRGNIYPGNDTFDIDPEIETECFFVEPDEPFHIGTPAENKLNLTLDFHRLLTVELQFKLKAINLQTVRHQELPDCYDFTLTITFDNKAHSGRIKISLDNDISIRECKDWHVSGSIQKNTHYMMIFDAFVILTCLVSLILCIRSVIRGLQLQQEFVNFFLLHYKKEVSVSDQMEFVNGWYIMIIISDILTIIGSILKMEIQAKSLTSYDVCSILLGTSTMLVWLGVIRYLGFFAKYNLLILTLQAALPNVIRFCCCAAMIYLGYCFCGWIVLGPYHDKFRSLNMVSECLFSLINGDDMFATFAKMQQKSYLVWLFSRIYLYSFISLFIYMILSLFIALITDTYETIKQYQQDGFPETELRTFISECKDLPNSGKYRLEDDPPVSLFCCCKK
Briefly: Fluorescent TRPML3 assay (performed as for TRPML1, substituting the TRPML3 subtype). The method in brief:
(§1)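 Compound series (final 6 nM-20 μM, half-log, triplicate) were added to Fluo4-AM-loaded HEK-293 Trex cells in 10 mM calcium Ringer's, expressing the human TRPML subtype after doxycycline 0.5 ug/mL induction. Percent activity versus positive/negative controls from 480/540 nm fluorescence; EC50 by non-linear regression.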

Another experiment deals with T2, TRPML2 (Homo sapiens, UniProt Q8IZK6).
T2 construct: expressed in transfected cells
T2 sequence (Q8IZK6 1-566): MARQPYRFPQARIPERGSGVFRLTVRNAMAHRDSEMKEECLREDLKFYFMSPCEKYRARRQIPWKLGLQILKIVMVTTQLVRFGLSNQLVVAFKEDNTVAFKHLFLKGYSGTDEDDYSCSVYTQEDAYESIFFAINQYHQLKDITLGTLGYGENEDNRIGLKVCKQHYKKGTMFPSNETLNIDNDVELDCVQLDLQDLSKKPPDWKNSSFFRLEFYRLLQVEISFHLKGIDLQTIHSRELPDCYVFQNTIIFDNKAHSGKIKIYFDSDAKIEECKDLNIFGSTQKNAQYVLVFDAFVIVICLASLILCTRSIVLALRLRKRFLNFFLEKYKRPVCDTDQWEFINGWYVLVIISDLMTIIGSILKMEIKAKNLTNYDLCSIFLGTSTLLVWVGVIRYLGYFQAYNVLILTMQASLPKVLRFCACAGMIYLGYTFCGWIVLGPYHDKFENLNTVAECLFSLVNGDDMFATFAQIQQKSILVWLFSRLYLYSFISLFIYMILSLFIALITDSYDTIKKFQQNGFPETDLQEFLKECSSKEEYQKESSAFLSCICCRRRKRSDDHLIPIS
Briefly: Fluorescent TRPML2 assay (performed as for TRPML1, substituting the TRPML2 subtype). The essentials: as §1

For another experiment, the target named is TRPML1 (Homo sapiens, UniProt Q9GZU1). Briefly: Fluorescent TRPML1 assay (Fluo4-AM calcium fluorescence in doxycycline-induced HEK-293 Trex cells). The essentials: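 First, expression of surface-targeted mutant human TRPML1 is induced in HEK-293 Trex cells with 0.5 ug/mL doxycycline the day before. Next, cells take up 1 micromolar Fluo4-AM in Ringer's with 0.1% Pluronic. Finally, they are added to compounds (6 nanomolar–20 micromolar final) in 10 mM calcium Ringer's and fluorescence is read.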
TRPML1, sequence (Q9GZU1 whole entry L15A/L16A/L577A/L578A, form open): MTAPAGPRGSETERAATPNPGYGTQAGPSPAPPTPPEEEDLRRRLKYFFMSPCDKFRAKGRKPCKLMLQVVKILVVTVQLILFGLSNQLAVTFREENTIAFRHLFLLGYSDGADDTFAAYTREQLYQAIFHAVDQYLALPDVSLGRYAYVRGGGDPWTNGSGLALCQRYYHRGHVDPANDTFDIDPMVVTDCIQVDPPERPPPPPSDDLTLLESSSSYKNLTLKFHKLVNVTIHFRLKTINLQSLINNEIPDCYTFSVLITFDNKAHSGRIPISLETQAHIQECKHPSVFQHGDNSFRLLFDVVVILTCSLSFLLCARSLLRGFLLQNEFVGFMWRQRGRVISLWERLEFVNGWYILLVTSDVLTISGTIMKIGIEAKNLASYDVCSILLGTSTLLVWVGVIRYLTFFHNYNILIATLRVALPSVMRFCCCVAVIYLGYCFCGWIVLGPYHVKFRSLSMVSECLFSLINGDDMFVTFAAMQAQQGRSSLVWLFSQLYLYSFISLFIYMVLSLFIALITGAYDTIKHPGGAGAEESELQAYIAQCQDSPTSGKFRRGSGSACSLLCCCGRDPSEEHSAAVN

As for `C[C@@H]1CN(c2ncnc3c2c(C(F)(F)F)cn3-c2cc(C#N)ccn2)[C@@H](C)CN1C(=O)OC1(C(F)(F)F)CCC1` [Compound 604, 1-(trifluoromethyl)cyclobutyl (2R,5S)-4-(7-(4-cyanopyridin-2-yl)-5-(trifluoromethyl)-7H-pyrrolo[2,3-d]pyrimidin-4-yl)-2,5-dimethylpiperazine-1-carboxylate], the EC50 on TRPML3 is < 100 nM; on TRPML2 it was 100 to 500 nM; on TRPML1, < 100 nM.

As to `C[C@@H]1CN(c2ncnc3c2c(C(F)F)cn3-c2cc(C#N)ccn2)[C@@H](C)CN1C(=O)OC1(C)CCC1` [Compound 605, 1-methylcyclobutyl (2R,5S)-4-(7-(4-cyanopyridin-2-yl)-5-(difluoromethyl)-7H-pyrrolo[2,3-d]pyrimidin-4-yl)-2,5-dimethylpiperazine-1-carboxylate], the EC50 at TRPML3 is < 100 nM; at TRPML2, 100 to 500 nM; on TRPML1, < 100 nM.

With `C[C@@H]1CN(c2ncnc3c2c(C(F)F)cn3-c2cccc(Cl)c2)[C@@H](C)CN1C(=O)OC1(C)CC1` [Compound 608, 1-methylcyclopropyl (2R,5S)-4-(7-(3-chlorophenyl)-5-(difluoromethyl)-7H-pyrrolo[2,3-d]pyrimidin-4-yl)-2,5-dimethylpiperazine-1-carboxylate], the figures for the concentration for a half-maximal effect (EC50) at TRPML3, at TRPML2 and on TRPML1 were < 100 nM, > 2000 nM and 100 to 500 nM, respectively.

`CC(C)(C)OC(=O)N1CCN(c2ncnc3c2c(C(F)F)cn3-c2cc(C#N)ccn2)CC1` [Compound 609, tert-buty1 4-(7-(4-cyanopyridin-2-yl)-5-(difluoromethyl)-7H-pyrrolo[2,3-d]pyrimidin-4-yl)piperazine-1-carboxylate]: the EC50 on TRPML3 is < 100 nM; on TRPML2 it was 500 to 2000 nM; on TRPML1 it was < 100 nM.

Regarding `[2H]C([2H])([2H])[C@@H]1CN(c2ncnc3c2c(C(F)F)cn3-c2cc(C#N)ccn2)[C@@H](C)CN1C(=O)OC(C)(C)C` [Compound 610, tert-butyl (2R,5S)-4-(7-(4-cyanopyridin-2-yl)-5-(difluoromethyl)-7H-pyrrolo[2,3-d]pyrimidin-4-yl)-5-methyl-2-(methyl-d3)piperazine-1-carboxylate], the concentration giving a half-maximal response (EC50) on TRPML3 is < 100 nM; on TRPML2, 500 to 2000 nM; on TRPML1 it was < 100 nM.

On to `C[C@H]1CN(C(=O)OC(C)(C)C)CCN1c1nccc2c1c(C1(C)CC1)cn2-c1cc(C#N)ccn1` [Compound 612, tert-butyl (S)-4-(1-(4-cyanopyridin-2-yl)-3-(1-methylcyclopropyl)-1H-pyrrolo[3,2-c]pyridin-4-yl)-3-methylpiperazine-1-carboxylate], for which the EC50 was 100 to 500 nM at TRPML3, 500 to 2000 nM on TRPML2 and < 100 nM on TRPML1.

For the molecule `C[C@@H]1CN(c2ncnc3c2c(C(F)F)cn3-c2cc(C#N)ccn2)[C@@H](C)CN1C(=O)OC1(C(F)(F)F)CCC1` [Compound 614, 1-(trifluoromethyl)cyclobutyl (2R,5S)-4-(7-(4-cyanopyridin-2-yl)-5-(difluoromethyl)-7H-pyrrolo[2,3-d]pyrimidin-4-yl)-2,5-dimethylpiperazine-1-carboxylate], the results for the concentration for a half-maximal effect (EC50) on TRPML3, on TRPML2 and at TRPML1 were < 100 nM, 100 to 500 nM and < 100 nM, respectively.

Regarding `CC1CC1c1cn(-c2cc(C#N)ccn2)c2ncnc(N3CCN(C(=O)OC(C)(C)C)C[C@@H]3C)c12` (stereo partly drawn) [Compound 615, tert-butyl (3S)-4-(7-(4-cyanopyridin-2-yl)-5-(2-methylcyclopropyl)-7H-pyrrolo[2,3-d]pyrimidin-4-yl)-3-methylpiperazine-1-carboxylate], the concentration for a half-maximal effect (EC50) at TRPML3, on TRPML2 and at TRPML1 was < 100 nM throughout.

As for `CC1CC1c1cn(-c2cccc(C#N)c2)c2ncnc(N3CCN(C(=O)OC(C)(C)C)C[C@@H]3C)c12` (stereo partly drawn) [Compound 616], the EC50 at TRPML3, on TRPML2 and at TRPML1 was < 100 nM in each case.

`C[C@@H]1CN(c2ncnc3c2c(CC(F)(F)F)cn3-c2nccc(C#N)n2)[C@@H](C)CN1C(=O)OC(C)(C)C` [Compound 617, tert-butyl (2R,5S)-4-(7-(4-cyanopyrimidin-2-yl)-5-(2,2,2-trifluoroethyl)-7H-pyrrolo[2,3-d]pyrimidin-4-yl)-2,5-dimethylpiperazine-1-carboxylate]: the EC50 is 100 to 500 nM at TRPML3, > 2000 nM at TRPML2 and < 100 nM on TRPML1.

With `C[C@@H]1CN(c2ncnc3c2c(CC(F)(F)F)cn3-c2cc(C#N)ncn2)[C@@H](C)CN1C(=O)OC(C)(C)C` [Compound 618, tert-butyl (2R,5S)-4-(7-(6-cyanopyrimidin-4-yl)-5-(2,2,2-trifluoroethyl)-7H-pyrrolo[2,3-d]pyrimidin-4-yl)-2,5-dimethylpiperazine-1-carboxylate], the values for the EC50 at TRPML3, on TRPML2 and at TRPML1 were < 100 nM, 100 to 500 nM and < 100 nM, respectively.

As to `C[C@@H]1CN(c2ncnc3c2c(CC(F)(F)F)cn3-c2cc(C#N)ccn2)[C@@H](C)CN1C(=O)OC(C)(C)C` [Compound 619], the EC50 at TRPML3 was < 100 nM; on TRPML2, 500 to 2000 nM; on TRPML1, < 100 nM.

In the case of `C[C@@H]1CN(c2nccc3c2c(C(F)(F)F)cn3-c2cc(C#N)ccn2)[C@@H](C)CN1C(=O)OC(C)(C)C` [Compound 620, tert-butyl (2R,5S)-4-(1-(4-cyanopyridin-2-yl)-3-(trifluoromethyl)-1H-pyrrolo[3,2-c]pyridin-4-yl)-2,5-dimethylpiperazine-1-carboxylate], the EC50 is < 100 nM on TRPML3, 100 to 500 nM on TRPML2 and < 100 nM at TRPML1.

As to `[2H]C([2H])([2H])C(OC(=O)N1C[C@H](C)N(c2nccc3c2c(C(F)(F)F)cn3-c2cc(C#N)ccn2)C[C@H]1C)(C([2H])([2H])[2H])C([2H])([2H])[2H]` [Compound 623, 2-(methyl-d3)propan-2-yl-1,1,1,3,3,3-d6 (2R,5S)-4-(1-(4-cyanopyridin-2-yl)-3-(trifluoromethyl)-1H-pyrrolo[3,2-c]pyridin-4-yl)-2,5-dimethylpiperazine-1-carboxylate], the EC50 on TRPML3 is < 100 nM; at TRPML2, 500 to 2000 nM; at TRPML1, < 100 nM.

For `C[C@@H]1CN(c2nccc3c2c(C(F)F)cn3-c2cc(C#N)ccn2)[C@@H](C)CN1C(=O)OC(C)(C)C` [Compound 624, tert-butyl (2R,5S)-4-(1-(4-cyanopyridin-2-yl)-3-(difluoromethyl)-1H-pyrrolo[3,2-c]pyridin-4-yl)-2,5-dimethylpiperazine-1-carboxylate], the concentration for a half-maximal effect (EC50) on TRPML3 is 100 to 500 nM; on TRPML2, > 2000 nM; on TRPML1, 100 to 500 nM.

With `C[C@@H]1CN(c2ncnc3c2c(C(F)(F)F)cn3C2CCCCC2)[C@@H](C)CN1C(=O)OC(C)(C)C` [Compound 625, tert-butyl (2R,5S)-4-(7-cyclohexyl-5-(trifluoromethyl)-7H-pyrrolo[2,3-d]pyrimidin-4-yl)-2,5-dimethylpiperazine-1-carboxylate], the concentration giving a half-maximal response (EC50) on TRPML3 was > 2000 nM; at TRPML2, > 2000 nM; on TRPML1 it was 100 to 500 nM.

On to `C[C@@H]1CN(c2ncnc3c2c(C(F)F)cn3C2CCCCC2)[C@@H](C)CN1C(=O)OC(C)(C)C` [Compound 627, tert-butyl (2R,5S)-4-(7-cyclohexyl-5-(difluoromethyl)-7H-pyrrolo[2,3-d]pyrimidin-4-yl)-2,5-dimethylpiperazine-1-carboxylate], for which the EC50 was 100 to 500 nM on TRPML3, > 2000 nM at TRPML2 and 100 to 500 nM at TRPML1.

On to `C[C@@H]1CN(c2ncnc3c2c(C(F)(F)F)cn3C2CCCC(C#N)C2)[C@@H](C)CN1C(=O)OC(C)(C)C` (stereo partly drawn) [Compound 629, tert-butyl (2R,5S)-4-(7-(3-cyanocyclohexyl)-5-(trifluoromethyl)-7H-pyrrolo[2,3-d]pyrimidin-4-yl)-2,5-dimethylpiperazine-1-carboxylate], for which the EC50 at TRPML3 was 100 to 500 nM; at TRPML2 it was > 2000 nM; at TRPML1, 500 to 2000 nM.
